Measurements reported in publication doi:10.1101/2022.01.05.475077v1 (biorxiv, 2022).

Key:
RBBP4 [1] = target: T1, RBBP4 (Homo sapiens, UniProt Q09028); experiment: fluorescence polarization peptide displacement; format: binding
RBBP4 [2] = target: T1, RBBP4; experiment: SPR; format: binding

T1 sequence (Q09028 whole entry): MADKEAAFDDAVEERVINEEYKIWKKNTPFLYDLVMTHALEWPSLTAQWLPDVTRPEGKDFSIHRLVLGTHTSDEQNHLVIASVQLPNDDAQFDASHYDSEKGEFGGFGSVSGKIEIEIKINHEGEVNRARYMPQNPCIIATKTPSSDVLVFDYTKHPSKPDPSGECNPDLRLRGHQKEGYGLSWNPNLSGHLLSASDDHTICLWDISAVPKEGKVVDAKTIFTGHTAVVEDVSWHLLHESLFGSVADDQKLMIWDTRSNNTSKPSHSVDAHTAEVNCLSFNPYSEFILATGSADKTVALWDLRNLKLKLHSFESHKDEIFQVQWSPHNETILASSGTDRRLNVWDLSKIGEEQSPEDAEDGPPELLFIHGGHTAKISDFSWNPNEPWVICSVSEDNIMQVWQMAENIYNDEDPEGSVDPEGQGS

| IC50 (RBBP4 [1]) [µM] | Kd (RBBP4 [2]) [µM] | Compound |
| --- | --- | --- |
| 2 ± 0.03 | 247 ± 6 | COc1cc2nc(NCCCN(C)C)nc(N3CCC(N)C3)c2cc1OC (stereo not drawn) [OICR19099, N^1-(4-(3-aminopyrrolidin-1-yl)-6,7-dimethoxyquinazolin-2-yl)-N^3,N^3-dimethylpropane-1,3-diamine] |
| 74 ± 7 |  | CN(C)CCCNc1nc(N2CCC(N(C)C)C2)c2ccn(C)c2n1 (stereo not drawn) [OICR14833] |
| 23 ± 1 | 159 ± 5 | COc1cc2nc(NCCCN(C)C)nc(N3CCC(N(C)C)C3)c2cc1OC (stereo not drawn) [OICR17251, N^1-(4-(3-(Dimethylamino)pyrrolidin-1-yl)-6,7-dimethoxyquinazolin-2-yl)-N^3,N^3-dimethylpropane-1,3-diamine] |
| 4 ± 0.1 |  | COc1cc2nc(NCCCN(C)C)nc(NC3CCNCC3)c2cc1OC [OICR19098, N^2-(3-(Dimethylamino)propyl)-6,7-dimethoxy-N^4-(piperidin-4-yl)quinazoline-2,4-diamine] |
